Measurements from publication PMC6148246, “HS-1371, a novel kinase inhibitor of RIP3-mediated necroptosis” (Experimental & Molecular Medicine, 2018).

Key:
HT-29 cells [1] = assay: TNF-induced apoptosis in HT-29 cells (TC or TS); type: cell-based, human; details: HT-29, 5 μM pretreated 2 h
Protocol: HT-29 cells expressing RIP3 shRNA, MLKL shRNA, or non-silencing control were analyzed by western blotting (upper panel), and these cells were treated with TSZ (6 h for immunoblotting, 24 h for cell death assay). Cell lysates were analyzed by immunoblotting (middle panel), and cell viability was analyzed by MTT assay (bottom panel). The results are presented as means ± SEM. *P < 0.05, **P < 0.01, ***P < 0.001. b HS-1371 protected cells not only from TNF-induced necroptosis but also from TRAIL-induced necroptosis. HT-29 cells were pretreated with indicated concentrations of HS-1371 and then treated with TRAIL + Smac + zVAD (6 h for immunoblotting, 24 h for cell death assay). Cell lysates were analyzed by immunoblotting, and cell viability was analyzed by MTT assay or phase-contrast microscopy. The results are presented as means ± SEM. *P < 0.05, **P < 0.01, ***P < 0.001. c, d HS-1371 had no effect on TNF-induced apoptosis. HT-29 cells were pretreated with HS-1371 (5 μM) for 2 h and then treated with TC or TS (TNF + either cycloheximide or SMAC mimetic, hereafter referred to as TC or TS, 6 h for immunoblotting, 24 h (TC) or 36 h (TS) for cell death assay). Cell lysates were analyzed by immunoblotting, and cell viability was analyzed by MTT assay (TC) or CellTiter-Glo Luminescent Cell Viability Assay Kit (TS). The results are presented as means ± SEM. *P < 0.05, **P < 0.01, ***P < 0.001

293T cells = assay: RIP3 overexpression-induced cell death in 293T cells (PI staining); type: cell-based, human; details: 293T transfected with Flag-RIP3, 20 h
Protocol: Fig. 6 Possibility of HS-1371 as a drug for necroptosis-related diseases. a, b HT-29 cells were pre- or post-treated with HS-1371 for indicated time points, and RIP3 phosphorylation (a) and cell death (b) were measured by western blotting or MTT assay. Data are presented as means ± SEM. *P < 0.05, **P < 0.01, ***P < 0.001. c HT-29 cells were treated with TSZ and then post-treated with HS-1371 for indicated time points, and then cell lysates were analyzed by immunoblotting (upper panel). Cell viability was analyzed by MTT assay. Data are presented as means ± SEM. *P < 0.05, **P < 0.01, ***P < 0.001. d Cells were treated with the same conditions as (c), and cell lysates were immunoprecipitated with anti-RIP3 antibody. […] 293T cells were transfected with Flag vector or Flag-RIP3, and 20 h after transfection, cells were stained with PI. PI-positive cells were analyzed by phase-contrast fluorescence microscopy

[2] = tested on: mouse embryonic fibroblast (MEF) cells; assay: TCZ-induced necroptosis in MEF cells; type: cell-based; details: TNF plus cycloheximide and zVAD (TCZ)
Protocol: (§1) Cells were pretreated with DAB or HS-1371 for 2 h and then treated with TSZ (6 h for immunoblotting, 24 h for cell death assay). Cell lysates were analyzed by immunoblotting (left bottom panel), and cell viability was analyzed by MTT assay (right panel). The results are presented as means ± SEM. *P < 0.05, **P < 0.01, ***P < 0.001. c, d HS-1371 had the same effect on mouse cells. L929 (mouse sarcoma, c) and MEF (mouse embryonic fibroblast, d) cells were pretreated with inhibitors and then necroptosis was induced by TNF. Cell lysates were analyzed by immunoblotting (upper panel), and cell viability was analyzed by MTT assay (bottom panel). The results are presented as means ± SEM. *P < 0.05, **P < 0.01, ***P < 0.001

HT-29 cells [3] = assay: TRAIL-induced necroptosis in HT-29 cells (immunoblot, MTT); type: cell-based
Protocol: HT-29 cells expressing RIP3 shRNA, MLKL shRNA, or non-silencing control were analyzed by western blotting (upper panel), and these cells were treated with TSZ (6 h for immunoblotting, 24 h for cell death assay). Cell lysates were analyzed by immunoblotting (middle panel), and cell viability was analyzed by MTT assay (bottom panel). The results are presented as means ± SEM. *P < 0.05, **P < 0.01, ***P < 0.001. b HS-1371 protected cells not only from TNF-induced necroptosis but also from TRAIL-induced necroptosis. HT-29 cells were pretreated with indicated concentrations of HS-1371 and then treated with TRAIL + Smac + zVAD (6 h for immunoblotting, 24 h for cell death assay). Cell lysates were analyzed by immunoblotting, and cell viability was analyzed by MTT assay or phase-contrast microscopy. The results are presented as means ± SEM. *P < 0.05, **P < 0.01, ***P < 0.001. c, d HS-1371 had no effect on TNF-induced apoptosis. HT-29 cells were pretreated with HS-1371 (5 μM) for 2 h and then treated with TC or TS (TNF + either cycloheximide or SMAC mimetic, hereafter referred to as TC or TS, 6 h for immunoblotting, 24 h (TC) or 36 h (TS) for cell death assay). Cell lysates were analyzed by immunoblotting, and cell viability was analyzed by MTT assay (TC) or CellTiter-Glo Luminescent Cell Viability Assay Kit (TS). The results are presented as means ± SEM. *P < 0.05, **P < 0.01, ***P < 0.001 […]

[4] = tested on: RIP3 or MLKL-deficient cells; assay: TSZ treatment of RIP3 or MLKL knockdown HT-29 cells (MTT assay); type: cell-based, human; details: HT-29 shRIP3 or shMLKL, TSZ 24 h
Protocol: MISSION short-hairpin RNA (shRNA) plasmids targeting hRIP3 mRNA (NM_006871), hMLKL mRNA (NM_152649), and non-targeting control sequences (NM_027088) were obtained from Sigma-Aldrich. Lentiviral plasmids were transfected into 293TN cells (System Biosciences, LV900A-1) using Lipofectamine 2000 (Invitrogen, 11668019). Pseudoviral particles were collected 2 days after the transfection and infected into cells with polybrene (8 μg/mL). Infected cells were puromycin selected two days after infection, and knockdown was confirmed by immunoblotting.
HT-29 cells expressing RIP3 shRNA, MLKL shRNA, or non-silencing control were analyzed by western blotting (upper panel), and these cells were treated with TSZ (6 h for immunoblotting, 24 h for cell death assay). Cell lysates were analyzed by immunoblotting (middle panel), and cell viability was analyzed by MTT assay (bottom panel). The results are presented as means ± SEM. *P < 0.05, **P < 0.01, ***P < 0.001. b HS-1371 protected cells not only from TNF-induced necroptosis but also from TRAIL-induced necroptosis. […] Cell lysates were analyzed by immunoblotting, and cell viability was analyzed by MTT assay or phase-contrast microscopy. […] Cell lysates were analyzed by immunoblotting, and cell viability was analyzed by MTT assay (TC) or CellTiter-Glo Luminescent Cell Viability Assay Kit (TS). […]

H2009 cells = H2009 cells ectopically expressing RIP3, TSZ-induced necroptosis; type: cell-based, human; details: H2009 with ectopic RIP3
Protocol: HEK293T, HT-29, H2009, L929, HeLa, and MEF cells were grown in Dulbecco’s Modified Eagle’s Medium (DMEM) supplemented with 10% fetal bovine serum (FBS). RAW264.7 cells were grown in Roswell Park Memorial Institute (RPMI) 1640 media supplemented with 10% FBS. To generate cell lines stably expressing the RIP3 construct, HeLa and H2009 cells were infected with pLX303-hRIP3 lentivirus.
as §1

Cc1ccc(Oc2ccnc3cc(-c4cnn(C5CCNCC5)c4)ccc23)cc1 [HS-1371, 7-(1-(Piperidin-4-yl)-1H-pyrazol-4-yl)-4-(p-tolyloxy)quinoline]
apoptosis induced by TNF plus CHX (HT-29 cells [1]; TC 24 h, MTT): did not inhibit | apoptosis induced by TNF plus Smac mimetic (HT-29 cells [1]; TS 36 h, CellTiter-Glo): did not inhibit | cell death by RIP3 ectopic expression (PI-positive staining) (293T cells): completely blocked | MLKL phosphorylation and cell death [2]: effectively prevented | TRAIL-induced S227 phosphorylation of RIP3 and RIP3-mediated phosphorylation of MLKL (HT-29 cells [3]; HT-29, TRAIL + Smac mimetic + zVAD 6 h, dose-dependent): decreased | TRAIL-induced cytotoxicity (HT-29 cells [3]; HT-29, TRAIL + Smac mimetic + zVAD 24 h, MTT): reduction in cytotoxicity | cell viability in RIP3 or MLKL-deficient cells treated with TSZ [4]: did not obviously affect cell viability | TSZ-induced necroptosis (H2009 cells): prevented
